# Results: patent publication US20250051327A1, “MALT-1 MODULATORS” (EXSCIENTIA AI LIMITED, priority 2020, published 2025)
# Where two headings read alike, the source gives them in different places.
# Experiments:
# [1] = system: IL-2 secretion by human effector memory T cells (TEM); test: Effector memory T cells IL-2 release assay; assay type: cell-based; details: human CD4+ effector memory T cells, CD3/CD28 bead stimulation, 24 h, read-out: CD4TC IL2 IC50
# How it was run: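 Human CD4+ effector memory T cells from healthy-donor buffy coats were stimulated with anti-CD3/CD28 Dynabeads and exposed to 10 semi-log compound doses (0.1% DMSO) for 24 h at 37 °C. Supernatant IL-2 was measured by HTRF, and IC50 came from a 4-parameter logistic fit to maximal IL-2. Viability was checked by flow cytometry.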
# [2] = biological target: Recombinant human MALT-1 (amino acids 340-824) (Homo sapiens (Human), UniProt Q9UDY8); test: MALT-1 inhibition assay (fluorogenic substrate Ac-LRSR-Rh110-DP); assay type: biochemical; details: recombinant human MALT-1, substrate Ac-LRSR-Rh110-DP
# How it was run: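 MALT-1 at 3 nM final was reacted with 10 μM Ac-LRSR-Rh110-DP, with substrate addition starting the reaction. Incubation ran 60 minutes at 25° C in the dark. Percent inhibition from fluorescence across doses was fitted to a 4-parameter logistic to give IC50.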
# Sequence of Recombinant human MALT-1 (amino acids 340-824) (Q9UDY8 340-824): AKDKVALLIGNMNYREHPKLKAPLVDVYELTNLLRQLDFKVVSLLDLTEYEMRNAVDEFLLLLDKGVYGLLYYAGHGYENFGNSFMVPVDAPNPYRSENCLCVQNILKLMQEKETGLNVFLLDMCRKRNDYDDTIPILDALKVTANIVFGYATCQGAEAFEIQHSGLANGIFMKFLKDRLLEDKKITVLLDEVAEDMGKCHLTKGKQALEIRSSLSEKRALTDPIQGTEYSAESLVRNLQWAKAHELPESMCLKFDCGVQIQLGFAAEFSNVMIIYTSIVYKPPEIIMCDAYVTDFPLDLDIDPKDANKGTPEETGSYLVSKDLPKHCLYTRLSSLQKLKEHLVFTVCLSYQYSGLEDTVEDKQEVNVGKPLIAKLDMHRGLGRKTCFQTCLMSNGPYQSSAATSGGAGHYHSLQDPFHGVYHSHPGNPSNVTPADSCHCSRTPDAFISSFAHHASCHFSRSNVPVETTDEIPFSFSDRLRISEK
SMILES,IC50 [1] [µM],IC50 [2] [µM],IC50 ([1]; T-cell) [µM]
"COC(C)c1c(Nc2ccc([C@H](N(C)C(=O)C3CCS(=O)(=O)CC3)C(F)(F)F)cn2)cnc2ccc(Cl)nc12 (stereo in doubt) [CPD0019501, N-[(1S)-1-[6-({6-chloro-4-[(1 rel S)-1-methoxyethyl]-1,5-naphthyridin-3-yl}amino)pyridin-3-yl]-2,2,2-trifluoroethyl]-N-methyl-1,1-dioxo-1λ^6-thiane-4-carboxamide]",0.38,0.348,–
"CN(C(=O)C1(C#N)CCS(=O)(=O)CC1)[C@@H](c1ccc(N2CCCc3c2cnc2cc(Cl)nn32)cc1)C(F)(F)F [CPD0073553, N-[(1S)-1-(4-{4-chloro-2,3,7,10-tetraazatricyclo[7.4.0.0^2,6]trideca-1(9),3,5,7-tetraen-10-yl}phenyl)-2,2,2-trifluoroethyl]-4-cyano-N-methyl-1,1-dioxo-1λ^6-thiane-4-carboxamide]",–,0.05,0.077
"CN(C(=O)[C@H]1CC[S@](=N)(=O)CC1)[C@@H](c1ccc(N2CCCc3c2cnc2cc(Cl)nn32)cc1)C(F)(F)F (relative stereo) [CPD0072529, (1rel-r,4rel-r)-N-[(1S)-1-(4-{4-chloro-2,3,7,10-tetraazatricyclo[7.4.0.0^2,6]trideca-1(9),3,5,7-tetraen-10-yl}phenyl)-2,2,2-trifluoroethyl]-1-imino-N-methyl-1-oxo-1λ^6-thiane-4-carboxamide]",–,0.026,0.094
"CN(C(=O)CN1CCCS1(=O)=O)[C@@H](c1ccc(N2CCCc3c2cnc2cc(Cl)nn32)cc1)C(F)(F)F [CPD0073085, N-[(1S)-1-(4-{4-chloro-2,3,7,10-tetraazatricyclo[7.4.0.0^2,6]trideca-1(9),3,5,7-tetraen-10-yl}phenyl)-2,2,2-trifluoroethyl]-2-(1,1-dioxo-1λ^6,2-thiazolidin-2-yl)-N-methylacetamide]",–,0.154,0.286
"CN(C(=O)[C@H]1CC[S@@+]([O-])CC1)[C@@H](c1ccc(N2CCC3(CC3)c3c2cnc2cc(F)nn32)cc1)C(F)(F)F (relative stereo) [CPD0072932, (1rel-s,4rel-s)-N-methyl-1-oxo-N-[(1S)-2,2,2-trifluoro-1-(4-{4′-fluoro-2′,3′,7′,10′-tetraazaspiro[cyclopropane-1,13′-tricyclo[7.4.0.0^2,6]tridecane]-1′(9′),3′,5′,7′-tetraen-10′-yl}phenyl)ethyl]-1λ^4-thiane-4-carboxamide]",–,0.049,0.056
"CC(=O)N1CC[C@H](C(=O)N(C)[C@@H](c2ccc(N3CCCc4c3cnc3cc(Cl)nn43)cc2)C(F)(F)F)C1 (relative stereo) [CPD0073189, (3rel-S)-1-acetyl-N-[(1S)-1-(4-{4-chloro-2,3,7,10-tetraazatricyclo[7.4.0.0^2,6]trideca-1(9),3,5,7-tetraen-10-yl}phenyl)-2,2,2-trifluoroethyl]-N-methylpyrrolidine-3-carboxamide]",–,0.076,0.16
"CN(C(=O)[C@H]1C[C@](O)(C(F)(F)F)C1)[C@@H](c1ccc(N2CCCc3c2cnc2cc(Cl)nn32)cc1)C(F)(F)F [CPD0072441, (1s,3s)-N-[(1S)-1-(4-{4-chloro-2,3,7,10-tetraazatricyclo[7.4.0.0^2,6]trideca-1(9),3,5,7-tetraen-10-yl}phenyl)-2,2,2-trifluoroethyl]-3-hydroxy-N-methyl-3-(trifluoromethyl)cyclobutane-1-carboxamide]",–,0.113,0.222
"COc1cc2ncc3c(n2n1)CCCN3c1ccc([C@H](N(C)C(=O)C2CCS(=O)(=O)CC2)C(F)(F)F)cc1 [CPD0019576, N-methyl-1,1-dioxo-N-[(1S)-2,2,2-trifluoro-1-(4-{4-methoxy-2,3,7,10-tetraazatricyclo[7.4.0.0^2,6]trideca-1(9),3,5,7-tetraen-10-yl}phenyl)ethyl]-1λ^6-thiane-4-carboxamide]",–,0.313,1.25
"COCC(=O)N1CC[C@H](C(=O)N(C)[C@@H](c2ccc(N3CCCc4c3cnc3cc(Cl)nn43)cc2)C(F)(F)F)C1 (relative stereo) [CPD0075874, (3rel-R)-N-[(1S)-1-[4-(4-chloro-2,3,7,10-tetrazatricyclo[7.4.0.0^2,6]trideca-1(9),3,5,7-tetraen-10-yl)phenyl]-2,2,2-trifluoro-ethyl]-1-(2-methoxyacetyl)-N-methyl-pyrrolidine-3-carboxamide]",–,0.095,0.23
CC1CCN(c2ccc([C@H](N(C)C(=O)[C@H]3CC[S@@](=N)(=O)CC3)C(F)(F)F)cc2)c2cnc3cc(Cl)nn3c21 (stereo partly shown) [CPD0072812],–,0.031,0.079
"CN(C(=O)CO)[C@@H](c1ccc(N2CCCc3c2cnc2cc(Cl)nn32)cc1)C(F)(F)F [CPD0019341, N-[(1S)-1-[4-(4-chloro-2,3,7,10-tetrazatricyclo[7.4.0.0^2,6]trideca-1(9),3,5,7-tetraen-10-yl)phenyl]-2,2,2-trifluoro-ethyl]-2-hydroxy-N-methyl-acetamide]",–,0.2,0.104
"C[C@@H]1CCN(c2ccc([C@H](N(C)C(=O)[C@H]3CC[S@](=N)(=O)CC3)C(F)(F)F)cc2)c2cnc3cc(Cl)nn3c21 (relative stereo) [CPD0073193, (1rel-r,4rel-r)-N-[(1S)-1-{4-[(13rel-R)-4-chloro-13-methyl-2,3,7,10-tetraazatricyclo[7.4.0.0^2,6]trideca-1(9),3,5,7-tetraen-10-yl]phenyl}-2,2,2-trifluoroethyl]-1-imino-N-methyl-1-oxo-1λ^6-thiane-4-carboxamide]",–,0.022,0.068
"CN(C(=O)C1CCS(=O)(=O)CC1)[C@@H](c1ccc(N2CCCc3c2cnc2cc(Cl)nn32)c(F)c1)C(F)(F)F [CPD0021750, N-[(1S)-1-(4-{4-chloro-2,3,7,10-tetraazatricyclo[7.4.0.0^2,6]trideca-1(9),3,5,7-tetraen-10-yl}-3-fluorophenyl)-2,2,2-trifluoroethyl]-N-methyl-1,1-dioxo-1λ^6-thiane-4-carboxamide]",–,0.076,0.111
"CN(C(=O)[C@H]1CC[C@H](C(=O)O)CC1)[C@@H](c1ccc(N2CCCc3c2cnc2cc(Cl)nn32)cc1)C(F)(F)F [CPD0072442, (1r,4r)-4-{[(1S)-1-(4-{4-chloro-2,3,7,10-tetraazatricyclo[7.4.0.0^2,6]trideca-1(9),3,5,7-tetraen-10-yl}phenyl)-2,2,2-trifluoroethyl](methyl)carbamoyl}cyclohexane-1-carboxylic acid]",–,0.043,0.3
"CSc1cc2ncc3c(n2n1)CCCN3c1ccc([C@H](N(C)C(=O)C2CCS(=O)(=O)CC2)C(F)(F)F)cc1 [CPD0021815, N-methyl-1,1-dioxo-N-[(1S)-2,2,2-trifluoro-1-{4-[4-(methylsulfanyl)-2,3,7,10-tetraazatricyclo[7.4.0.0^2,6]trideca-1(9),3,5,7-tetraen-10-yl]phenyl}ethyl]-1λ^6-thiane-4-carboxamide]",–,0.332,0.228
"CN(C(=O)C1CN(C(=O)[C@H]2CCO2)C1)[C@@H](c1ccc(N2CCCc3c2cnc2cc(Cl)nn32)cc1)C(F)(F)F (relative stereo) [CPD0073562, N-[(1S)-1-(4-{4-chloro-2,3,7,10-tetraazatricyclo[7.4.0.0^2,6]trideca-1(9),3,5,7-tetraen-10-yl}phenyl)-2,2,2-trifluoroethyl]-N-methyl-1-[(2rel-R)-oxetane-2-carbonyl]azetidine-3-carboxamide]",–,0.08,0.352
"C[C@@H]1CCN(c2ccc([C@H](N(C)C(=O)[C@H]3CC[S@@](=N)(=O)CC3)C(F)(F)F)cc2)c2cnc3cc(F)nn3c21 (relative stereo) [CPD0074556, (1rel r, 4rel r)1-imino-N-methyl-1-oxo-N-[(1S)-2,2,2-trifluoro-1-[4-[(13 rel R)-4-fluoro-13-methyl-2,3,7,10-tetrazatricyclo[7.4.0.0^2,6]trideca-1(9),3,5,7-tetraen-10-yl]phenyl]ethyl]thiane-4-carboxamide]",–,0.062,0.168
"COC[C@]1(C)CCN(c2ccc([C@H](N(C)C(=O)[C@H]3CC[S@+]([O-])CC3)C(F)(F)F)cc2)c2cnc3cc(Cl)nn3c21 (relative stereo) [CPD0073136, (1rel-r,4rel-r)-N-[(1S)-1-[4-[(13rel-R)-4-chloro-13-(methoxymethyl)-13-methyl-2,3,7,10-tetrazatricyclo[7.4.0.0^2,6]trideca-1(9),3,5,7-tetraen-10-yl]phenyl]-2,2,2-trifluoro-ethyl]-N-methyl-1-oxo-1λ^4-thiane-4-carboxamide]",–,0.138,0.063
"COC(=O)N(C)[C@@H](c1ccc(N2CCCc3c2cnc2cc(Cl)nn32)cc1)C(F)(F)F [CPD0021733, Methyl N-[(1S)-1-(4-{4-chloro-2,3,7,10-tetraazatricyclo[7.4.0.0^2,6]trideca-1(9),3,5,7-tetraen-10-yl}phenyl)-2,2,2-trifluoroethyl]-N-methylcarbamate]",–,0.339,0.412
"CN(C(=O)[C@H]1CC[S@+]([O-])CC1)[C@@H](c1ccc(N2CCC(C)(C)c3c2cnc2cc(Cl)nn32)cc1)C(F)(F)F (relative stereo) [CPD0072777, (1rel-r,4rel-r)-N-[(1S)-1-(4-{4-chloro-13,13-dimethyl-2,3,7,10-tetraazatricyclo[7.4.0.0^2,6]trideca-1(9),3,5,7-tetraen-10-yl}phenyl)-2,2,2-trifluoroethyl]-N-methyl-1-oxo-1λ^4-thiane-4-carboxamide]",–,0.062,0.036
